Reference: patent US6906170B1 (Yeda Research and Development Co. Ltd., priority 1998, dated 2005)
No end group written: not given here.

Experiments:
human T cells [1] = assay: T cell chemotaxis through FN-coated polycarbonate membranes; assay type: cell-based; settings: peptide 1 pg/ml, FN-coated membrane; for inhibition of T cell migration toward IL-2: IL-2 10 U/ml in lower compartment, p<0.01; for inhibition of T cell chemotaxis toward MIP-1β: MIP-1β in lower compartment
Protocol: T cell migration towards the chemotactic sources was assessed after 2 hr. One experiment representative of four.
Chemotaxis assays. T cell chemotaxis was performed and analyzed as previously described (Ben-Baruch et al., 1997). Briefly, the migration of human T cells (0.5×10^6 cells in adhesion medium/well) was examined in a 48-well chemotaxis micro-chamber (Neuro-Probe Inc., Cabin John, M D). The two compartments of the micro-chambers were separated by a FN-coated polycarbonate filter (5 μm pore size; Osmonics Protein Products, Livemore, Calif.). […] After incubation (120 min, 37° C., in a humidified, 7.5% CO2 atmosphere); the filters were removed, fixed, and stained with a Diff-Quik staining kit Dade, Düdingen, Switzerland). The number of migrating T cells in five high-power fields (under 500× magnification; WILD Microscope, Heerbrugg, Switzerland) was evaluated. For each group, the results are expressed as the mean number of cells in one high-power field.
Immune cell migration is the outcome of a subtle biological equilibrium existing between adhesion and detachment events. Lymphocyte adhesion to the subendothelial ECM and subsequent migration are two active processes that can overlap, but are not mutually dependent events. Adhesion and migration may depend on the ability of the T cells to continuously integrate different pro- and anti-adhesive signals via their versatile receptors for ECM, chemokines, cytokines, and possibly, also antigenic moieties.

human T cells [2] = assay: T cell adhesion to FN induced by various activators; assay type: cell-based; settings: for inhibition of T cell adhesion to FN induced by various stimulators: peptide 10 pg/ml, IL-2, IL-7, MIP-1β, PMA, 8A2 mAb, anti-CD3 mAb
Protocol: FIGS. 7A-7B show inhibition by pep2 (FIG. 7A) and pep1 (FIG. 7B) of T cell adhesion to FN, induced by various activators. […] (1 μg/ml), or anti-human CD3 mAb (1 μg/ml). The IL-2-derived peptides, pep1 or pep2, were also present in some wells. After 30 min at 37° C., non-adherent T cells were removed by washing, the remaining adherent cells were lysed, and the percentage of T cells that had adhered was determined. One experiment representative of four.
(§1) T cell adhesion assays. Human T cells were purified from the peripheral blood of healthy donors, and T cell adhesion to immobilized protein substrates was examined as follows: Human leukocytes were isolated on a Ficoll gradient, washed, and incubated (2 h, 37° C., 7.5% CO2, humidified atmosphere) on petri dishes. The non-adherent cells were then collected and incubated (1 h, 37° C., 7.5% CO2, humidified atmosphere) on nylon wool columns (Novamed Ltd., Jerusalem, Israel). Unbound cells were eluted from the columns by extensive washings. The resulting cell population was always >92% T cells. […] After 4-6 h at 37° C., the wells were washed and ^51[Cr]-labeled T cells were added to the wells, 10^5 cells/100 μl of adhesion medium (RPMI-1640 supplemented with 0.1% BSA, 1% sodium pyruvate, 1% HEPES buffer). The microtiter plates containing the cells were incubated (30 min, 37° C.) in a humidified, 7.5% CO2 atmosphere, and then washed. The adherent cells were lysed, and the resulting supernatants were removed and analyzed in a γ-counter. For each experimental group, the results were expressed as the mean percentage ±SD of bound T cells from quadruplicate wells.
Inhibition by the Ile-Val-Leu and […](SEQ ID NO:1) peptides of T cell adhesion to FN induced by various pro-inflammatory mediators and by mAb specific for molecules expressed on T cells.

human T cells [3] = assay: IL-2-induced T cell adhesion to fibronectin (FN); assay type: cell-based; settings: for concentration giving maximum inhibition of IL-2-induced T cell adhesion to FN / concentration giving maximum inhibition of IL-2-induced T cell adhesion to FN (molar) / inhibition of adhesion of IL-2-activated T cells to FN: IL-2 10 U/ml; for inhibition of adhesion of IL-2-activated T cells to FN: 30 min at 37° C., dose range; for anti-adhesive effect after removal of peptide prior to IL-2 activation: T cells pre-treated 1 pg/ml, washed, then IL-2 and FN-coated wells
Protocol: as §1
The effect of synthetic peptides, with putative amino acid compositions corresponding to fractions 2 and 8, on IL-2-induced T cell adhesion to FN. […] These three peptides were synthesized, and their effects on IL-2-induced T cell adhesion to FN were studied. […] The inhibitory dose-response curves of Ile-Val-Leu and […](SEQ ID NO:1) are similar to those of the HPLC fractions 2 and 8, respectively, from which they were derived. […]

T cells = assay: Staining of actin cytoskeleton in FN-adherent activated T cells; assay type: cell-based, human; settings: TRITC-phalloidin staining
Protocol: FIGS. 8A-8E show inhibition by pep2 of the spreading and redistribution of the actin cytoskeleton in IL-2- and PMA-activated FN-adherent T cells. […] After incubation, the intracellular actin filaments of the fixed FN-attached T cells were stained. Original magnification, =1000.
Staining of actin cytoskeleton. T cells were incubated (18 h, 37° C., 7.5% CO2, humidified atmosphere) in culture medium. […] After 1 h at 37° C., the adherent cells were fixed (3 min) with paraformaldehyde (3%) and Triton X-100 (0.5%), washed, and fixed (20 min) again with paraformaldehyde (3%). The fixed adherent cells were washed, treated with TRITC-phalloidin, and washed again. Photographs (×1000 magnification) were then taken.
Inhibition of the reorganization of the actin cytoskeleton in FN-attached activated T cells by the […](SEQ ID NO:1) peptide. The adhesion of immune cells to ECM is dependent on the sequestering of the cytoplasmic domains of integrins in focal adhesion sites, together with actin-containing microfilament bundles (Sanchez-Mateos et al., 1996). Therefore, we examined the effect of […](SEQ ID NO:1) on the morphologies of adherent T cells. […] After incubation and fixation, the actin cytoskeleton of attached T cells was stained with TRITC-conjugated phalloidin. […]

HT-29 cells = assay: Spontaneous IL-8 secretion from intestinal epithelial cells (ELISA); assay type: cell-based, human; set-up: IL-8 secretion Average O.D.: scale not given here; settings: peptide 1 nM, 24 h at 37° C.; for IL-8 secretion Average O.D.: ELISA O.D. at 405 nm, medium alone 488 ± 8.5, background 71 ± 1.4; for IL-8 secretion % inhibition: spontaneous secretion
Protocol: Human colonic epithelial cell lines HT-29 (ATCC HTB38) and Caco-2 (ATCC […]) were obtained from the American Type Culture Collection (ATTC, Rockville, Md.). Cells were maintained in culture medium (DMEM supplemented with 10% cosmic calf serum (CSS), 2 mM glutamine, 100 U/ml penicillin, and 0.1 mg/ml streptomycin), at 37° C. and atmosphere of 5%, CO2. Cell viability was assessed using the standard MTT method.
Spontaneous or cytokine-induced secretion of IL-8 or IL-1β from intestinal epithelial cell. Test cells (HT-29 or Caco-2) were grown as confluent monolayers in 24-well tissue culture plates. […] When TNF-α was used, the peptides were added to the cells 1 hour prior to the addition of TNF-α. Following culture, the supernatants were harvested and analyzed for IL-8 or IL-1β secretion by ELISA using commercially available kits for IL-8 (Pharmingen) and IL-1β (Genzyme), according to the manufacturers' protocols.
The results in Table 1 show the O.D. readings of the ELISA assay (at 405 nm) as well as the percentage of inhibition of IL-8 secretion.

Glu-Phe-Leu-Asn-Arg-Trp-Ile-Thr (EFLNRWIT; not fully specified (C-terminus); printed as Glu-Phe-Leu-Asn-Arg-Trp-Ile-Thr) [pep2]
inhibition of T cell migration toward IL-2 (human T cells [1]): ~60%
inhibition of T cell chemotaxis toward MIP-1β (human T cells [1]): only a limited inhibitory effect
inhibition of 8A2-induced T cell adhesion to FN (human T cells [2]; peptide 0.1 pg/ml): did not inhibit
inhibition of PMA-induced T cell adhesion to FN (human T cells [2]; peptide 0.1 pg/ml): did not inhibit
inhibition of T cell adhesion to FN induced by various stimulators (human T cells [2]): inhibited T cell adhesion to FN
concentration giving maximum inhibition of IL-2-induced T cell adhesion to FN (human T cells [3]): 1 pg/mL
concentration giving maximum inhibition of IL-2-induced T cell adhesion to FN (molar) (human T cells [3]): 0.92 pM
inhibition of adhesion of IL-2-activated T cells to FN (human T cells [3]): inhibited, in a dose-dependent manner
anti-adhesive effect after removal of peptide prior to IL-2 activation (human T cells [3]): most of the anti-adhesive effects of the three peptides persevered
redistribution of the actin cytoskeleton in IL-2- and PMA-treated FN-adherent T cells (T cells): inhibited the redistribution of the actin skeleton
IL-8 secretion Average O.D. (HT-29 cells): 36 ± 4.2
IL-8 secretion % inhibition (HT-29 cells): 108%

Ile-Val-Leu [pep1]
inhibition of T cell migration toward IL-2 (human T cells [1]): about 30%
inhibition of T cell chemotaxis toward MIP-1β (human T cells [1]): 80%
inhibition of 8A2-induced T cell adhesion to FN (human T cells [2]; peptide 0.1 pg/ml): did not inhibit
inhibition of PMA-induced T cell adhesion to FN (human T cells [2]; peptide 0.1 pg/ml): did not inhibit
inhibition of anti-CD3 mAb-induced T cell adhesion to FN (human T cells [2]; peptide 0.1 pg/ml): did not inhibit
inhibition of T cell adhesion to FN induced by various stimulators (human T cells [2]): inhibited T cell adhesion to FN
concentration giving maximum inhibition of IL-2-induced T cell adhesion to FN (human T cells [3]): 1 pg/mL
concentration giving maximum inhibition of IL-2-induced T cell adhesion to FN (molar) (human T cells [3]): 2.91 pM
inhibition of adhesion of IL-2-activated T cells to FN (human T cells [3]): inhibited, in a dose-dependent manner
anti-adhesive effect after removal of peptide prior to IL-2 activation (human T cells [3]): most of the anti-adhesive effects of the three peptides persevered
redistribution of the actin cytoskeleton in IL-2- and PMA-treated FN-adherent T cells (T cells): inhibition of the redistribution of the actin cytoskeleton
IL-8 secretion Average O.D. (HT-29 cells): 54 ± 19.1
IL-8 secretion % inhibition (HT-29 cells): 104%
